Assay results reported in patent US20060089371A1, “Phenyl or heteroaryl amino alkane derivatives as ip receptor antagonist” (Bayer HealthCare AG, priority 2002, published 2006).

Experiments:
IP receptor = target: T1, IP receptor (Homo sapiens, UniProt P43119); experiment: IP receptor binding/cAMP in HEL cells ([3H]-iloprost binding, Assay 1; iloprost-induced cAMP production, Assay 2); conditions: compounds of about 40 to 90% purity, read-out: In vitro activity grade (IC50 class)
T1 construct: one million cells in 160 μl aliquot of cell suspension were put in a well of 96 well plate; host or cells: HEL 92.1.7 human erythroleukemia cells (whole cells)
Summary of the method: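 For binding (Assay 1), 1×10^6 HEL 92.1.7 cells in 50 mM Tris-HCl, 5 mM MgCl2, pH 7.5 were incubated with [3H]-iloprost (0.02 μCi) for 30 min at RT and filter-counted; a 100 μM iloprost solution defined non-specific binding. Compounds were of 40-90% purity.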

T1 sequence (P43119 whole entry): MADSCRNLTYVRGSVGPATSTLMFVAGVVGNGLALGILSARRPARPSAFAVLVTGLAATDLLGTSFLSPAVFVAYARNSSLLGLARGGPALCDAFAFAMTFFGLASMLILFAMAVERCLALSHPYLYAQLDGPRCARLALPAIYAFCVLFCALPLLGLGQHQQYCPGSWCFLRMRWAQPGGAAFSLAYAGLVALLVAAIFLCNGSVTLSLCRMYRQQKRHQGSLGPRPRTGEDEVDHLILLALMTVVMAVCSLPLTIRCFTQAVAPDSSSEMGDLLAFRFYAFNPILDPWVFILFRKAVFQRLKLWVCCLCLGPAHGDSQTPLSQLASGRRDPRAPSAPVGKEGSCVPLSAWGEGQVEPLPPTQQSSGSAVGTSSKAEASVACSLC

| Structure (SMILES) | IC50 (IP receptor) [nM] | melting point |
| --- | --- | --- |
| O=C(c1ccc(F)cc1)c1ccc(-c2cc(NC(Cc3ccccc3)C(=O)O)ncn2)cc1 (stereo not shown) [Example 17-4] | < 100 | 115 to 117 °C |
| O=C(c1ccc(Cl)cc1)c1ccc(-c2cc(NC(Cc3ccccc3)C(=O)O)ncn2)cc1 (stereo not shown) [Example 17-5] | < 100 | 123 to 126 °C |
| O=C(O)C(Cc1ccccc1)Nc1cc(-c2ccc(Cc3ccc(F)cc3)cc2)ncn1 (stereo not shown) [Example 18-2] | 100 to 1000 | 98 to 101 °C |
| O=C(O)C(Cc1ccccc1)Nc1cc(-c2ccc(Cc3ccc(Cl)cc3)cc2)ncn1 (stereo not shown) [Example 18-3] | 100 to 1000 | 105 to 107 °C |
| O=C(O)C(Cc1ccccc1)Nc1cc(-c2ccc(CNCc3ccccc3)cc2)ncn1 (stereo not shown) [Example 19-2] | 100 to 1000 | 173 to 176 °C (dec.) |
| O=C(O)C(Cc1ccccc1)Nc1cc(-c2ccc(CN3CCc4ccccc4C3)cc2)ncn1 (stereo not shown) [Example 19-4] | > 1000 | 148 to 150 °C |
| O=C(O)C(Cc1ccccn1)Nc1cc(-c2ccc(COc3ccccc3)cc2)ncn1 (stereo not shown) [Example 20-2] | < 100 | 81 to 84 °C |
| O=C(O)[C@H](Cc1ccccc1)Nc1cc(-c2ccc(/C=N/Oc3ccccc3)cc2)ncn1 [Example 21-1, N-(6-{4-[(E)-(phenoxyimino)methyl]phenyl}pyrimidin-4-yl)phenylalanine] | < 100 | 152.8 °C |
| O=Cc1c(N[C@@H](Cc2ccccc2)C(=O)O)ncnc1-c1ccc(OCc2ccccc2)cc1 [Example 22-1, N-{6-[4-(Benzyloxy)phenyl)-5-formylpyrimidin-4-yl}phenylalanine] | 100 to 1000 | > 300 °C |
| O=C(O)[C@H](Cc1ccccc1)Nc1ncnc(-c2ccc(OCc3ccccc3)cc2)c1CO [Example 23-1, N-[6-[4-(Benzyloxy)phenyl]-5-(hydroxymethyl)pyrimidin-4-yl]phenylalanine] | 100 to 1000 | 114 to 117 °C |
| O=C(O)[C@H](Cc1ccccc1)Nc1cccc(-c2ccc(OCc3ccccc3)cc2)c1 [Example 24-1, N-[4′-(Benzyloxy)biphenyl-3-yl]phenylalanine] | < 100 | 152 to 154 °C |
| COc1cccc(COc2ccc(-c3cccc(N[C@@H](Cc4ccccc4)C(=O)O)c3)cc2)c1 [Example 24-2, N-{4′-[(3-Methoxybenzyl)oxy]biphenyl-3-yl}phenylalanine] | < 100 | 159 to 162 °C |
| COc1cc(COc2ccc(-c3cccc(NC(Cc4ccccc4)C(=O)O)c3)cc2)cc(OC)c1 (stereo not shown) [Example 24-3] | < 100 | 166 to 168 °C |
| O=C(O)C(Cc1ccccc1)Nc1cccc(-c2ccc(OCc3ccccc3F)cc2)c1 (stereo not shown) [Example 24-4] | < 100 | 158 to 161 °C |
| O=C(O)C(Cc1ccccc1)Nc1cccc(-c2ccc(OCc3cccc(F)c3)cc2)c1 (stereo not shown) [Example 24-5] | < 100 | 167 to 169 °C |
| O=C(O)C(Cc1ccccc1)Nc1cccc(-c2ccc(OCc3ccc(F)cc3)cc2)c1 (stereo not shown) [Example 24-6] | 100 to 1000 | 175 to 178 °C |
| O=C(O)C(Cc1ccccc1)Nc1cccc(-c2ccc(OCCn3cccc3)cc2)c1 (stereo not shown) [Example 24-7] | < 100 | 182 to 185 °C |
| O=C(O)[C@H](Cc1ccccc1)Nc1cc(-c2ccc(OCc3ccccc3)nc2)ncn1 [Example 25-1, N-{6-[6-(benzyloxy)pyridin-3-yl]pyrimidin-4-yl}phenylalanine] | < 100 | 130 to 133 °C |
| O=C(O)C(Cc1ccccc1)Nc1cccc(-c2ccc(OCc3ccccc3)nc2)c1 (stereo not shown) [Example 25-2] | 100 to 1000 | 150 to 153 °C |
| O=C(O)C(Cc1ccccc1)Nc1cc(-c2ccc(OCC3CC3)nc2)ncn1 (stereo not shown) [Example 25-3] | < 100 | 113 to 114 °C |
| O=C(NO)C(Cc1ccccc1)Nc1cc(-c2ccc(OCc3ccccc3)cc2)ncn1 (stereo not shown) [Example 26-1, N-{6-[4-(Benzyloxy)phenyl]pyrimidin-4-yl}-N-hydroxyphenylalaninamide] | < 100 | 235 to 239 °C |
| c1ccc(COc2ccc(-c3cc(NC(Cc4ccccc4)c4nnn[nH]4)ncn3)cc2)cc1 (stereo not shown) [Example 27-1, 6-[4-(Benzyloxy)phenyl]-N-[2-phenyl-1-(1H-tetrazol-5-yl)ethyl)pyrimidin-4-amine] | < 100 | 150 °C |
| O=C(O)[C@H](Cc1ccccc1)Nc1ccnc(-c2ccc(OCc3ccccc3)cc2)c1 [Example 28-1, N-{2-[4-(Benzyloxy)phenyl]pyridin-4-yl}phenylalanine] | < 100 | 137 to 139 °C |
